Laboratory results reported in patent US20040086901A1, “Database for analyzing gene function and method of analyzing gene function by dspa” (priority 2000, published 2004).

How the values were obtained:
Format in all cases: cell-based, mouse
[1] = system: NIH3T3 cells overexpressing PDGF-R; experiment: MTT cell viability, PDGF-R overexpressing cells vs parental line; conditions: PDGF-R high-expressing cells / parental cell line, 3 to 4 days
Method: (§1) With regard to the function-known genes, the genes shown in the left column of Table 2 were used. With regard to the drugs, those shown in Table 1 were dissolved in DMSO to an extent of 100-fold of the maximum concentration for the search of the drugs and used. With regard to the cells, incubated NIH3T3 or ras-NIH3T3 cells were used.
(§2) Full-length cDNA of each function-known genes was incorporated into an expression vector (pRc-CMV, etc.) and transfected into NIH3T3 cells by a common method. Transformed cells were isolated using the resistance to G-418 as an index and the expression of the transfected gene in each cell was investigated by Western blotting method to select a highly expressing line.
(§3) Cell viabilities were measured according to the following procedures.
(§4) 1) From the 2nd to the 11th rows of a 96-well plate were filled with DMEM (50 μl). The 12th row was filled with 100 μl of DMEM.
(§5) 2) The 1st row was filled with 98 μl of DMEM.
(§6) 3) Drugs (2 μl each) were added into the 1st row.
(§7) 4) Continuous double-dilution was conducted from the 1st to the 9th rows. Fifty μl were taken out from the 9th row and discarded. The plate was preserved in a CO2 incubator.
(§8) 5) Cells (each high-expressing cells and the parental cell line) were detached from the medium using a trypsin solution, suspended in 10% CS-DMEM and transferred to a test tube and cell numbers (cell/ml) were counted.
(§9) 6) The cells were diluted to a concentration of 1×10^5 cells/ml, and 50 μl of the cell suspension were added to the 1st to the 11th rows of the plate followed by gently stirring.
(§10) 7) The plate was transferred to the CO2 incubator and incubated for 3 to 4 days.
(§11) 8) MTT (5 mg/ml in PBS) (10 μl) was added to the 1st to the 12th rows of the plate and incubated in the CO2 incubator at 37° C. for 4 hours.
(§12) 9) A reaction stop solution (0.04N HCl in isopropanol) (150 μl) was added followed by mixing well and being allowed to stand at room temperature for about 2 hours.
(§13) 10) Coloration of formazan which was a metabolite of the MTT dye was measured using a microplate reader. The measurement wavelength was 574 nm and the reference wavelength was 655 nm. The 10th and the 11th rows of the plate were 100% controls and the 12th row was a 0% control.
(§14) As an index for the sensitivity of highly gene-expressing cells and the parental cell line to various drugs, each of the IC40 values thereof was specified and ratios of the IC40 values were calculated. FIG. 2 and FIG. 3 are the examples where ratios of IC40 values were calculated from a curve showing the dependency on the concentration of the chemical versus the viability. After that, logarithmic values of ratios of IC40 values were calculated from each gene.

[2] = system: NIH3T3 cells overexpressing CBP8; experiment: MTT cell viability, CBP8 overexpressing cells vs parental line; conditions: CBP8 high-expressing cells / parental cell line, 3 to 4 days
Method: as §1, §2, §3, §4, §5, §6, §7, §8, §9, §10, §11, §12, §13, §14

[3] = system: NIH3T3 cells overexpressing erbB2; experiment: MTT cell viability, erbB2 overexpressing cells vs parental line; conditions: erbB2 high-expressing cells / parental cell line, 3 to 4 days
Method: as §1, §2, §3, §4, §5, §6, §7, §8, §9, §10, §11, §12, §13, §14

[4] = system: NIH3T3 cells overexpressing JNK-DN; experiment: MTT cell viability, JNK-DN overexpressing cells vs parental line; conditions: JNK-DN high-expressing cells / parental cell line, 3 to 4 days
Method: as §1, §2, §3, §4, §5, §6, §7, §8, §9, §10, §11, §12, §13, §14

[5] = system: NIH3T3 cells overexpressing Gluco-corticoid-R; experiment: MTT cell viability, Gluco-corticoid-R overexpressing cells vs parental line; conditions: Gluco-corticoid-R high-expressing cells / parental cell line, 3 to 4 days
Method: as §1, §2, §3, §4, §5, §6, §7, §8, §9, §10, §11, §12, §13
(§15) As an index for the sensitivity of highly gene-expressing cells and the parental cell line to various drugs, each of the IC40 values thereof was specified and ratios of the IC40 values were calculated. […] After that, logarithmic values of ratios of IC40 values were calculated from each gene.

[6] = system: NIH3T3 cells overexpressing cAMP-PK-CS; experiment: MTT cell viability, cAMP-PK-CS overexpressing cells vs parental line; conditions: cAMP-PK-CS high-expressing cells / parental cell line, 3 to 4 days
Method: as §1, §2, §3, §4, §5, §6, §7, §8, §9, §10, §11, §12, §13, §15

[7] = system: NIH3T3 cells overexpressing caspase-2; experiment: MTT cell viability, caspase-2 overexpressing cells vs parental line; conditions: caspase-2 high-expressing cells / parental cell line, 3 to 4 days
Method: as §1, §2, §3, §4, §5, §6, §7, §8, §9, §10, §11, §12, §13, §14

[8] = system: NIH3T3 cells overexpressing p33/ING1; experiment: MTT cell viability, p33/ING1 overexpressing cells vs parental line; conditions: p33/ING1 high-expressing cells / parental cell line, 3 to 4 days
Method: as §1, §2, §3, §4, §5, §6, §7, §8, §9, §10, §11, §12, §13, §14

[9] = system: NIH3T3 cells overexpressing cystatin alpha; experiment: MTT cell viability, cystatin alpha overexpressing cells vs parental line; conditions: cystatin alpha high-expressing cells / parental cell line, 3 to 4 days
Method: as §1, §2, §3, §4, §5, §6, §7, §8, §9, §10, §11, §12, §13, §14

[10] = system: NIH3T3 cells overexpressing N-ras; experiment: MTT cell viability, N-ras overexpressing cells vs parental line; conditions: N-ras high-expressing cells / parental cell line, 3 to 4 days
Method: as §1, §2, §3, §4, §5, §6, §7, §8, §9, §10, §11, §12, §13, §14

[11] = system: NIH3T3 cells overexpressing calpastatin; experiment: MTT cell viability, calpastatin overexpressing cells vs parental line; conditions: calpastatin high-expressing cells / parental cell line, 3 to 4 days
Method: as §1, §2, §3, §4, §5, §6, §7, §8, §9, §10, §11, §12, §13, §14

[12] = system: NIH3T3 cells overexpressing caspase-1; experiment: MTT cell viability, caspase-1 overexpressing cells vs parental line; conditions: caspase-1 high-expressing cells / parental cell line, 3 to 4 days
Method: as §1, §2, §3, §4, §5, §6, §7, §8, §9, §10, §11, §12, §13, §15

[13] = system: NIH3T3 cells overexpressing CP-antisense; experiment: MTT cell viability, CP-antisense cells vs parental line; conditions: 3 to 4 days
Method: as §1, §2, §3, §4, §5, §6, §7, §8, §9, §10, §11, §12, §13, §14

[14] = system: NIH3T3 cells overexpressing Ki-ras; experiment: MTT cell viability, Ki-ras overexpressing cells vs parental line; conditions: Ki-ras high-expressing cells / parental cell line, 3 to 4 days
Method: as §1, §2, §3, §4, §5, §6, §7, §8, §9, §10, §11, §12, §13, §14

[15] = system: NIH3T3 cells overexpressing p53(wt); experiment: MTT cell viability, p53(wt) overexpressing cells vs parental line; conditions: p53(wt) high-expressing cells / parental cell line, 3 to 4 days
Method: as §1, §2, §3, §4, §5, §6, §7, §8, §9, §10, §11, §12, §13, §15

[16] = system: NIH3T3 cells overexpressing coup; experiment: MTT cell viability, coup overexpressing cells vs parental line; conditions: coup high-expressing cells / parental cell line, 3 to 4 days
Method: as §1, §2, §3, §4, §5, §6, §7, §8, §9, §10, §11, §12, §13, §14

[17] = system: NIH3T3 cells overexpressing STAT1; experiment: MTT cell viability, STAT1 overexpressing cells vs parental line; conditions: STAT1 high-expressing cells / parental cell line, 3 to 4 days
Method: as §1, §2, §3, §4, §5, §6, §7, §8, §9, §10, §11, §12, §13, §15

[18] = system: NIH3T3 cells overexpressing m-calpain; experiment: MTT cell viability, m-calpain overexpressing cells vs parental line; conditions: m-calpain high-expressing cells / parental cell line, 3 to 4 days
Method: as §1, §2, §3, §4, §5, §6, §7, §8, §9, §10, §11, §12, §13, §15

[19] = system: NIH3T3 cells overexpressing HNF3b; experiment: MTT cell viability, HNF3b overexpressing cells vs parental line; conditions: HNF3b high-expressing cells / parental cell line, 3 to 4 days
Method: as §1, §2, §3, §4, §5, §6, §7, §8, §9, §10, §11, §12, §13, §15

[20] = system: NIH3T3 cells overexpressing T.Tn; experiment: MTT cell viability, T.Tn overexpressing cells vs parental line; conditions: T.Tn high-expressing cells / parental cell line, 3 to 4 days
Method: as §1, §2, §3, §4, §5, §6, §7, §8, §9, §10, §11, §12, §13, §15

Structure (SMILES) | logarithmic value of ratio of IC40 values [1] | logarithmic value of ratio of IC40 values [2] | logarithmic value of ratio of IC40 values [3] | logarithmic value of ratio of IC40 values [4] | logarithmic value of ratio of IC40 values [5] | logarithmic value of ratio of IC40 values [6] | logarithmic value of ratio of IC40 values [7] | logarithmic value of ratio of IC40 values [8] | logarithmic value of ratio of IC40 values [9] | logarithmic value of ratio of IC40 values [10] | logarithmic value of ratio of IC40 values [11] | logarithmic value of ratio of IC40 values [12] | logarithmic value of ratio of IC40 values [13] | logarithmic value of ratio of IC40 values [14] | logarithmic value of ratio of IC40 values [15] | logarithmic value of ratio of IC40 values [16] | logarithmic value of ratio of IC40 values [17] | logarithmic value of ratio of IC40 values [18] | logarithmic value of ratio of IC40 values [19] | logarithmic value of ratio of IC40 values [20]
CN[C@@H]1C[C@H]2O[C@@](C)([C@@H]1OC)n1c3ccccc3c3c4c(c5c6ccccc6n2c5c31)C(=O)NC4 [Staurosporine] | 0.24 | 0.19 | 0.04 | 0.14 | −0.28 | −0.12 | 0.18 | 0.62 | 0.30 | 0.24 | 0.04 | 0.22 | −0.15 | 0.38 | 0.07 | 0.08 |  |  |  | 
C[C@@H]1C[C@@H]([C@H](O)CC2CC(=O)NC(=O)C2)C(=O)[C@@H](C)C1 [CHX, cycloheximide] | 0.51 | 0.00 | −0.64 | 0.00 |  | 0.23 | 0.74 | −0.30 | 0.34 | −0.42 | 0.31 | −0.05 | 0.00 | −0.43 | 0.85 | 0.12 | 0.00 | 0.22 | 0.07 | 0.00
Nc1nc2nc[nH]c2c(=S)[nH]1 [6-TG, 6-thioguanine] | 0.22 | 0.38 | −0.12 | 0.00 | 0.09 | 0.14 | 0.18 | 0.46 | 0.60 | −0.22 | −0.25 |  | 0.14 | −0.30 |  | 0.45 | 0.20 | 0.29 | 0.03 | 0.00
